target: T1, full-length human KDAC6 (Homo sapiens, UniProt Q9UBN7); assay: Activity of KDAC6 with putative substrate peptides (verification of substrate preferences); assay type: biochemical; settings: endpoint, 100 μM peptide, 50–200 nM KDAC, 25 °C, pH 7.6, 15–60 min, buffer also containing 100 mM KCl; average ± SD; SD
T1 construct: A pFastbac1 construct containing full-length human KDAC6 (UniProtKB Q9UBN7) with a C-terminal His6 tag; His6 (C); made in house; host or cells: ExpiSf9 insect cells (baculovirus)
T1 sequence (Q9UBN7 1-1215): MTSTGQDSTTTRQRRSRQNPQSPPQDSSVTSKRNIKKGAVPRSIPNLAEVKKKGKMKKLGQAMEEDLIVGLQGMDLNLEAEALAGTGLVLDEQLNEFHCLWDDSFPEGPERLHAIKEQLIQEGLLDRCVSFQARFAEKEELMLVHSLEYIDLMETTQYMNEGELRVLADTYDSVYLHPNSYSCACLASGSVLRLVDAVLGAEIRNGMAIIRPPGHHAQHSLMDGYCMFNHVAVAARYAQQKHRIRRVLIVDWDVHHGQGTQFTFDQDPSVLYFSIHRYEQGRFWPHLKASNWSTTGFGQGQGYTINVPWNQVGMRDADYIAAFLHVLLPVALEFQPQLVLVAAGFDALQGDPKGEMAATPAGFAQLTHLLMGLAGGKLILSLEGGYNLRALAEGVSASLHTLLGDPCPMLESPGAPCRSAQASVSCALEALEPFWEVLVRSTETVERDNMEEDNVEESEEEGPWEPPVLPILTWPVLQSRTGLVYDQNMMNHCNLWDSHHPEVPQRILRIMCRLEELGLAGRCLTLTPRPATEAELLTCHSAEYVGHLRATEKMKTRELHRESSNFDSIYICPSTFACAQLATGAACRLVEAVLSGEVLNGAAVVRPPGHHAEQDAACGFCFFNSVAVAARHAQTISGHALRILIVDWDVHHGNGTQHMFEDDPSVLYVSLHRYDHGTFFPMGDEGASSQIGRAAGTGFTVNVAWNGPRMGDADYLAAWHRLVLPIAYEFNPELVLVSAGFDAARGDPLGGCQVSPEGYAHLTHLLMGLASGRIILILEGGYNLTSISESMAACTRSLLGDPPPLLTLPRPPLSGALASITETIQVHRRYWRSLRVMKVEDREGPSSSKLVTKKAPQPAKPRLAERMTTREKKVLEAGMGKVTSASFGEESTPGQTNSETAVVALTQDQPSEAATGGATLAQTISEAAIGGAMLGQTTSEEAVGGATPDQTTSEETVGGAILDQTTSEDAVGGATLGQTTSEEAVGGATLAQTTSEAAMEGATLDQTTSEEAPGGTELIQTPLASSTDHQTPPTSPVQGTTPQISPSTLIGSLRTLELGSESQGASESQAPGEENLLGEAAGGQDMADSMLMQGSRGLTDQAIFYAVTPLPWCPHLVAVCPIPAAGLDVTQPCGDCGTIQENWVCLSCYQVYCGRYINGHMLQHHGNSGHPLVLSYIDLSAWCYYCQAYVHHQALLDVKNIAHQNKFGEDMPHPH
Experimental: (§1) Peptide substrates were synthesized to >95% purity (GenScript) with N-terminal acetylation and C-terminal amidation. For endpoint experiments, 100 μM peptide substrates were reacted with 50–200 nM KDAC at 25 °C at pH 7.6 for 15–60 min. Deacetylation was measured using a fluorescamine-based assay that was previously described in detail.[18] Reported raw activity for each enzyme–substrate pair is the average and standard deviation for n ≥ 4 unless otherwise noted. Normalized activity was calculated by defining the activity of each KDAC with the FRK^acWR peptide equal to 1. Statistical significance was determined by calculating p values using two-tailed t-tests, assuming similar variance. The significance threshold was set at p ≤ 0.01 with the Bonferroni correction for multiple testing. Kinetic parameters were determined for a subset of enzyme–substrate pairs. In these experiments, 50–200 nM KDAC was reacted with ≥5 substrate concentrations from 10 to 2500 nM and ≥3 timepoints at intervals of 3–20 min were collected for each substrate concentration. Deacetylation was measured using the same method as the endpoint experiments, and KM and kcat were calculated from the observed activity of each reaction as previously described.[18] Activity assays with peptides for verification of substrate preferences were performed as for endpoint experiments, except in a buffer also containing 100 mM KCl. Statistical analysis of the correlation of the presence of particular substrate residues with activity was performed using Fisher’s exact test with a significance threshold of p ≤ 0.05.
In contrast with the peptides tested thus far, which were all derivatives of a single substrate, these panels consisted of peptides derived from human proteins in which the lysine residue is known to be acetylated in cells.[3],[5],[42],[50]−[72] For each enzyme, peptides were included either because they contained an acetyllysine that has been identified as a putative substrate of the KDAC from published cellular studies and/or because the peptide contained a residue that appeared to drive KDAC activity in our analysis. For KDAC6, we observed that of the set of peptides that were tested, six contained tryptophan or tyrosine directly after the acetyllysine. Remarkably, all of these peptides appeared in the top seven most reactive substrates tested (Table 2). Assuming that phenylalanine would behave similarly to tryptophan and tyrosine, we determined that there was a statistically significant correlation between whether or not a peptide was deacetylated by KDAC6 and the presence of tyrosine, tryptophan, or phenylalanine in the +1 position (p = 0.011). […] Thus, our conclusion that the presence of these aromatic residues in the +1 position relative to the acetyllysine is a major factor promoting KDAC6 activity has predictive utility and provides some understanding of the underlying mechanistic basis.

Row | Substance | specific activity, KDAC6 with putative substrates
1 | TDGK^acVFQ [acetyllysine peptide from 60S ribosomal protein L24 (P83731)] | 0.026 ± 0.024 s^–1
2 | LDHK^acFDL [acetyllysine peptide from tubulin α-1A chain (P68369)] | 0.009 ± 0.007 s^–1
3 | SDMK^acHWP [acetyllysine peptide from heat shock 70 kDa protein 1A/1B (P0DMV8/P0DMV9)] | 0.013 ± 0.009 s^–1
4 | GAGK^acHVP [acetyllysine peptide from tubulin α-1A chain (P68369)] | 0.06 ± 0.03 s^–1
5 | LSGK^acGNP [acetyllysine peptide from catenin β-1 (P35222)] | 0.042 ± 0.009 s^–1
6 | QATK^acDAG [acetyllysine peptide from heat shock 70 kDa protein 1A/1B (P0DMV8/P0DMV9)] | 0.022 ± 0.006 s^–1
7 | YFSK^acHN [acetyllysine peptide from peroxiredoxin-2 (P32119), C-terminus, not amidated] | 0.010 ± 0.006 s^–1
8 | IIDK^acSQL [acetyllysine peptide from serine/threonine-protein kinase SIK2 (Q9H0K1)] | 0.011 ± 0.009 s^–1

same assay, conditions: endpoint, 100 μM peptide, buffer also containing 100 mM KCl; limit of reliable detection 0.0013 s^–1

Row | Substance | specific activity, KDAC6 with putative substrates (no activity above limit)
9 | PEAK^acSLL [acetyllysine peptide from RAC-α serine/threonine-protein kinase (P31749)] | – (– indicates no activity above the limit of reliable detection (0.0013 s^–1))
10 | PDRK^acPFP [acetyllysine peptide from E3 SUMO-protein ligase EGR2 (P11161)] | – (– indicates no activity above the limit of reliable detection (0.0013 s^–1))
11 | TLSK^acLHE [acetyllysine peptide from protein diaphanous homologue 3 (Q9NSV4)] | – (– indicates no activity above the limit of reliable detection (0.0013 s^–1))
12 | SVRK^acGIM | – (– indicates no activity above the limit of reliable detection (0.0013 s^–1))
13 | LISK^acIRE [acetyllysine peptide from tubulin β (Q13509)] | – (– indicates no activity above the limit of reliable detection (0.0013 s^–1))
14 | PSPK^acVSD [acetyllysine peptide from tubulin β-3 chain (Q13509)] | – (– indicates no activity above the limit of reliable detection (0.0013 s^–1))
15 | DLAK^acVQR [acetyllysine peptide from tubulin α-1A chain (P68369)] | – (– indicates no activity above the limit of reliable detection (0.0013 s^–1))
16 | FFHK^acVNE [acetyllysine peptide from Mitofusin-1 (Q8IWA4)] | – (– indicates no activity above the limit of reliable detection (0.0013 s^–1))
17 | VLEK^acLGE [acetyllysine peptide from serine/threonine-protein kinase 4 (Q13043)] | – (– indicates no activity above the limit of reliable detection (0.0013 s^–1))

target: T2, Full-length human KDAC8 (Homo sapiens, UniProt Q9BY41); assay: Activity of KDAC8 with putative substrate peptides (verification of substrate preferences); assay type: biochemical; settings: endpoint, 100 μM peptide, 50–200 nM KDAC, 25 °C, pH 7.6, 15–60 min, buffer also containing 100 mM KCl; average ± SD; SD
T2 construct: Full-length human KDAC8 (UniProtKB Q9BY41) was recombinantly expressed fused to a C-terminal His6 tag; TEV protease cleavage site (C); His6 (C); made in house; host or cells: Escherichia coli
T2 sequence (Q9BY41 1-377): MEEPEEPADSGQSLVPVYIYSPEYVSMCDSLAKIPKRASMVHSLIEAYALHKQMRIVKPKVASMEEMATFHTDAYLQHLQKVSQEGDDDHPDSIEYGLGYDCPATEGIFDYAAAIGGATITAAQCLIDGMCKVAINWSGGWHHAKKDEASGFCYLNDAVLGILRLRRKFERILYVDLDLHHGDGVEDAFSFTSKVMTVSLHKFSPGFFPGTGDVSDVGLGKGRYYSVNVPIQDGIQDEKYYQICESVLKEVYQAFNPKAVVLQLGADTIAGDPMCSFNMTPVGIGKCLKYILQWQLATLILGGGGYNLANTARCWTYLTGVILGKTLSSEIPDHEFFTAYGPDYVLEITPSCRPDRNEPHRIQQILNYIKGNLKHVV
Experimental: as §1
We performed a similar experiment for KDAC8, this time using substrates that have been described as potential KDAC8 substrates from cell-based studies or which contained residues in the +1 and/or +2 positions that were identified to enhance activity of KDAC8. […] In addition, we also considered phenylalanine, as we did for KDAC6. Here, we looked at the correlation between peptides having any of these features and activity. While the result was less striking than for KDAC6, there was still a positive correlation between the presence of the identified residues and activity (Table 3; p = 0.048). Although we have identified only a portion of the interactions that likely contribute to substrate selectivity for these enzymes, these interactions correlate with a statistically significant increase in activity with peptides from potential biological substrates in an unbiased background of residues in other positions.

Row | Substance | specific activity, KDAC8 with putative substrates
18 | RIPK^acEQW [acetyllysine peptide from ATP-dependent 6-phosphofructokinase, platelet type (Q01813)] | 0.0031 ± 0.0015 s^–1
19 | RFTK^acCLR [acetyllysine peptide from steroid hormone receptor ERR1 (P11474)] | 0.0030 ± 0.0016 s^–1
20 | PLWK^acGIG [acetyllysine peptide from regulator of nonsense transcripts 1 (Q92900)] | 0.0035 ± 0.0021 s^–1
21 | LGGK^acQRA [acetyllysine peptide from retinoic acid-induced protein 1 (Q7Z5J4)] | 0.0006 ± 0.0004 s^–1
22 | RMFK^acQFN [acetyllysine peptide from transcription intermediary factor 1-β (Q13263)] | 0.015 ± 0.014 s^–1

same assay, conditions: endpoint, 100 μM peptide, buffer also containing 100 mM KCl; limit of reliable detection 0.0004 s^–1

Row | Substance | specific activity, KDAC8 with putative substrates (no activity above limit)
23 | SDMK^acHWP [acetyllysine peptide from heat shock 70 kDa protein 1A/1B (P0DMV8/P0DMV9)] | – (– indicates no activity above the limit of reliable detection (0.0004 s^–1))
24 | VGGK^acDFE [acetyllysine peptide from PDZ and LIM domain protein 1 (O00151)] | – (– indicates no activity above the limit of reliable detection (0.0004 s^–1))
25 | EIGK^acTLA | – (– indicates no activity above the limit of reliable detection (0.0004 s^–1))
26 | EVGK^acLLN [acetyllysine peptide from centromere protein F (P49454)] | – (– indicates no activity above the limit of reliable detection (0.0004 s^–1))

From PMC10157890, “Lysine Deacetylase Substrate Selectivity: Distinct Interaction Surfaces Drive Positive and Negative Selection for Residues Following Acetyllysine” (Biochemistry, 2023)
